Data published in patent US20220387602A1, “BIFUNCTIONAL DEGRADERS AND THEIR METHODS OF USE” (NOVARTIS AG, priority 2019, published 2022).

Experiments:
HEK293 and TMD8 cells = assay: Proteomics experiment (TMT quantification mass spectrometry of protein abundance); format: cell-based; conditions: 1 μM, 6 hours, FIG. 3E
Protocol: HEK293 and TMD8 cells were treated with 1 μM dasatinib, 1 μM compound 06, 1 μM compound 07 or DMSO and protein abundance was analyzed using TMT quantification mass spectrometry. Significant changes were assessed by limma, log 2 fold changes are shown on the x-axis and p-values on the y-axis. Proteins with kinase annotations in UniProt are shown as squares and kinases with a log2 fold change≤−0.6 and a p-value≤0.01 are labeled with the corresponding gene name.
HEK293 and TMD8 cells were treated for 6 hours with DMSO (3 replicates), 1 μM dasatinib (2 replicates), 1 μM compound 06 (3 replicates) and 1 μM compound 07 (3 replicates), respectively. TMT11plex-labeled peptides were generated with the PreOmics iST-NHS kit according to the manufacturer's protocol (PreOmics, Germany). […] The 24 fractions were analyzed with a 25 cm×75 μm ID, 1.6 μm C18 Aurora Series emitter column (IonOpticks, Australia) on an EASY-nLC 1200 system coupled to an Orbitrap™ Fusion Lumos mass spectrometer (Thermo Fisher Scientific, USA). […] The Proteome Discoverer™ 2.1 software and the SEQUEST algorithm was used for protein identification and relative quantification. Log2 fold changes of protein abundances and p-values were calculated in Python and R with the limma package (Ritchie M E et al. Limma powers differential expression analyses for RNA-sequencing and microarray studies. Nucleic Acids Res. 2015, 43(7):e47).

BTK = biological target: T1, BTK (Homo sapiens, UniProt Q06187); assay: BTK-GFP protein abundance flow cytometry assay in HEK293A; format: cell-based; conditions: 24 h; for BTK degradation Amax: % protein remaining at the concentration at which maximum degradation is seen, HEK293A; for DC50: concentration at which 50% maximal degradation was observed, HEK293A BTK-GFP sensor cells
T1 construct: the BTK open reading frame (ORF) was first shuttled from a pcDNA-DEST40-BTK vector; expressed in transfected cells; host or cells: HEK293A (Invitrogen R70507), lentiviral transduction, blasticidin selection
T1 sequence (Q06187 whole entry): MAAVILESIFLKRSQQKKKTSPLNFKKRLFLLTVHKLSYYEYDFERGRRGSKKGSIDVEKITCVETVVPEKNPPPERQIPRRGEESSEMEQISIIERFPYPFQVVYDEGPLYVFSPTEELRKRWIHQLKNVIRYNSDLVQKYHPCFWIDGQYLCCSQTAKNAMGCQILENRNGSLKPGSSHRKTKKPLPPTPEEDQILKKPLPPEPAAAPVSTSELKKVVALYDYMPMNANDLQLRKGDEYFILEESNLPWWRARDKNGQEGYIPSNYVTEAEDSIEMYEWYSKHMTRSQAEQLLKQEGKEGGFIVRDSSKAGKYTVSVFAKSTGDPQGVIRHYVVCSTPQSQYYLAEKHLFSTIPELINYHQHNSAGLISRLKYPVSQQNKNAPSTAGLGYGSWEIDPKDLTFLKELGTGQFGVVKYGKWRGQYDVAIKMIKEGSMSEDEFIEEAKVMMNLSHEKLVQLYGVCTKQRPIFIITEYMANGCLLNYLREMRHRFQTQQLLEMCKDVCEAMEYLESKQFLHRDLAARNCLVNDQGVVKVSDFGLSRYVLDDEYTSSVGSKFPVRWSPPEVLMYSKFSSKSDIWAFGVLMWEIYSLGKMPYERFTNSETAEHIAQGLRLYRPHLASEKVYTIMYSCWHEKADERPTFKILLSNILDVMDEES
Procedure, shortened: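 HEK293A cells stably expressing bicistronic BTK-GFP-iresRFP were treated 24 h at 37° C with 10-point 1:3 dilutions from 10 μM, DMSO at 0.1%. GFP was read by flow cytometry as median of 5,000 single cells, scaled between RFP-only cells (0%) and DMSO controls (100%). DC50 = concentration at 50% degradation; Amax = % protein remaining at maximal degradation.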

COc1ccc(C(=O)N2CCC3(CCN(C(=O)CCCCCCCN4CCN(c5cc(Nc6ncc(C(=O)Nc7c(C)cccc7Cl)s6)nc(C)n5)CC4)CC3)CC2)cc1N1CCC(=O)NC1=O [compound 06, N-(2-chloro-6-methylphenyl)-2-((6-(4-(8-(9-(3-(2,4-dioxotetrahydropyrimidin-1(2H)-yl)-4-methoxybenzoyl)-3,9-diazaspiro[5.5]undecan-3-yl)-8-oxooctyl)piperazin-1-yl)-2-methylpyrimidin-4-yl)amino)thiazole-5-carboxamide]
degradation of bound kinase targets (proteomics) (HEK293 and TMD8 cells): able to degrade several of the targets to which they bind
BTK degradation Amax (BTK): 2.1%
DC50 (BTK): 4.7 nM

COc1ccc(C(=O)N2CCC3(CCN(C(=O)CN4CCN(c5cc(Nc6ncc(C(=O)Nc7c(C)cccc7Cl)s6)nc(C)n5)CC4)CC3)CC2)cc1N1CCC(=O)NC1=O [compound 07, N-(2-chloro-6-methylphenyl)-2-((6-(4-(2-(9-(3-(2,4-dioxotetrahydropyrimidin-1(2H)-yl)-4-methoxybenzoyl)-3,9-diazaspiro[5.5]undecan-3-yl)-2-oxoethyl)piperazin-1-yl)-2-methylpyrimidin-4-yl)amino)thiazole-5-carboxamide]
degradation of bound kinase targets (proteomics) (HEK293 and TMD8 cells): able to degrade several of the targets to which they bind
BTK degradation Amax (BTK): 0.9%
DC50 (BTK): 9.3 nM
